For four compounds, pIC50 results are on record in the supplement of paper PMC12076712.

The target in one assay is AKT1 (UniProt P31749). In words: pIC50, kinobeads binding competition. Put shortly:
(§1)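 Either living Jurkat cells (60 min at 37 °C, then lysis) or lysates (60 min at 4 °C) were treated with nine compound concentrations from a top of 30 μM, in 1:4 steps for cells and 1:5 steps for lysates. The lysates were from Jurkat cells or a 1:1:1:1 mix of HEK293, K-562, HepG2 and placenta. Kinobeads-bound proteins were digested and quantified by TMT10 LC-MS/MS. pIC50 was calculated by logistic dose-response fitting (R drc package) of fold changes relative to vehicle, in biological duplicates.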

The target in the next assay is MAST1 (UniProt Q9Y2H9). In words: pIC50, kinobeads binding competition. Conditions: cell material: Jurkat lysate. Put shortly: as §1
The next assay has as its target PAK1 (UniProt Q13153). In words: pIC50, kinobeads binding competition. Particulars: cell material: Jurkat cells. Put shortly: as §1
For the next assay, the target named is RAF1 (UniProt P04049). In words: pIC50, kinobeads binding competition. Put shortly: as §1
Chain of RAF1 (P04049 whole entry): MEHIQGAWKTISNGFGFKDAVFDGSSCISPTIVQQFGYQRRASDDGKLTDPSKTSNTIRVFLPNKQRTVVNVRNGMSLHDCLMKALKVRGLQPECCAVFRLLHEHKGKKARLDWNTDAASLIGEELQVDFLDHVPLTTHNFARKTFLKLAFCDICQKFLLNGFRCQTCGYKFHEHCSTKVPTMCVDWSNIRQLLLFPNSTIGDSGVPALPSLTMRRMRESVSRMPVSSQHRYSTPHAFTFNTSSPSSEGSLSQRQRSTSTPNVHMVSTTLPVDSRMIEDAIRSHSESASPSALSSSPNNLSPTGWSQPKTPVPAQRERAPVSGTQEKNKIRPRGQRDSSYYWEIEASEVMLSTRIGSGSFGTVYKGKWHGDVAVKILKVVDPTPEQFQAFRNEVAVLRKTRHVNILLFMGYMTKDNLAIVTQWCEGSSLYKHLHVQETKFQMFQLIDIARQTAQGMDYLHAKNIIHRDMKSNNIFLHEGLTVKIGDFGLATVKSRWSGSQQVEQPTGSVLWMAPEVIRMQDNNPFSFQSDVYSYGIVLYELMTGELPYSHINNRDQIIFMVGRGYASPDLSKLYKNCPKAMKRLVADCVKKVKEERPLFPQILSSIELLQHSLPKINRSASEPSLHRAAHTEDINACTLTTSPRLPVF
A further assay addresses TRRAP (UniProt Q9Y4A5). Description: pIC50, kinobeads binding competition. Particulars: cell material: Jurkat cells. Put shortly:
as §1

For a further assay, the target named is T1, UHMK1 (UniProt Q8TAS1).
T1 sequence (whole entry): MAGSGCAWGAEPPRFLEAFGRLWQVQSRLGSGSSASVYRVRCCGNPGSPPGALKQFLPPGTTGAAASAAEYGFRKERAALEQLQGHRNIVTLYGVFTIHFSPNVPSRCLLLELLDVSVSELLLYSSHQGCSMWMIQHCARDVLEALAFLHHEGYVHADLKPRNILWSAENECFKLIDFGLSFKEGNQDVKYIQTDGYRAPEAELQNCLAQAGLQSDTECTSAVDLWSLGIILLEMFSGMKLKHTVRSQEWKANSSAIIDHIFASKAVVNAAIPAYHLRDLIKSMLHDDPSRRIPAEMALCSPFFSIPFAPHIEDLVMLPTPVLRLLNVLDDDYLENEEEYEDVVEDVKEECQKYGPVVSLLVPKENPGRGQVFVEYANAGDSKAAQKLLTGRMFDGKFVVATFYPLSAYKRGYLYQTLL
In words: pIC50, kinobeads binding competition. Conditions: cell material: Jurkat lysate. Put shortly: as §1

The target in a further assay is UniProt O00506. Description: pIC50, kinobeads binding competition. Put shortly:
as §1

Another assay has as its target UniProt P23443. Description: pIC50, kinobeads binding competition. Put shortly:
as §1

A further assay concerns the target MAPK12 (UniProt P53778). Description: pIC50, competition of probe 3 labelling in live cells. Conditions: cell material: Jurkat cells.
For the next assay, the target named is T2, NEK9 (UniProt Q8TD19).
T2 sequence (whole entry): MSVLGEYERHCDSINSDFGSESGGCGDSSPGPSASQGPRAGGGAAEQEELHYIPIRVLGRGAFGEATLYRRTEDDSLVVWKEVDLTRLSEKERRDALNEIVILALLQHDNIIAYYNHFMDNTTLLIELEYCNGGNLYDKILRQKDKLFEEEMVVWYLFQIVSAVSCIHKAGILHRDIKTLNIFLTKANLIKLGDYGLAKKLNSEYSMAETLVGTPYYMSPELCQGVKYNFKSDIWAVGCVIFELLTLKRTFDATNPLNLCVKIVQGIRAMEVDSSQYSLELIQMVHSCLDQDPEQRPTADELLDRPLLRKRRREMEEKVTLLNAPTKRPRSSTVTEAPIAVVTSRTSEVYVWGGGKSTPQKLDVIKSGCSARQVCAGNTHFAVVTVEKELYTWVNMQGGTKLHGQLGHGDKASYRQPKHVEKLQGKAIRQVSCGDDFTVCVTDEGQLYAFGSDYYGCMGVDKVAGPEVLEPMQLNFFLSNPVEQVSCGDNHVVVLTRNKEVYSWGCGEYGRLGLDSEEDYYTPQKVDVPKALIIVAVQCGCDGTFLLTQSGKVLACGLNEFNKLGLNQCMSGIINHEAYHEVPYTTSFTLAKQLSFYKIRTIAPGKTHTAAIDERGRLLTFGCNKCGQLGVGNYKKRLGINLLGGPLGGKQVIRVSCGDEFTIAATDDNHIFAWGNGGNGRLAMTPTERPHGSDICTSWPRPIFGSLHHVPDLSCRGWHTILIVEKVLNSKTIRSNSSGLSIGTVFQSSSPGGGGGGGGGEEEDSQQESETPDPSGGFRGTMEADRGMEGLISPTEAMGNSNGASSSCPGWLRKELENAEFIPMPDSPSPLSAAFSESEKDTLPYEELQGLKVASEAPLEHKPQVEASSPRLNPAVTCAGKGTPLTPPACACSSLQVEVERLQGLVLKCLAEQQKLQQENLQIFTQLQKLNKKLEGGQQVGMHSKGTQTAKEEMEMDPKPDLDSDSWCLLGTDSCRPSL
The description is as above. Conditions: cell material: Jurkat cells.

Another assay has as its target PAK2 (UniProt Q13177). The assay is described as above. Conditions: cell material: Jurkat cells.
A further assay deals with STK33 (UniProt Q9BYT3). The assay is described as above. Conditions: cell material: Jurkat cells.
Chain of STK33 (Q9BYT3 whole entry, looked up): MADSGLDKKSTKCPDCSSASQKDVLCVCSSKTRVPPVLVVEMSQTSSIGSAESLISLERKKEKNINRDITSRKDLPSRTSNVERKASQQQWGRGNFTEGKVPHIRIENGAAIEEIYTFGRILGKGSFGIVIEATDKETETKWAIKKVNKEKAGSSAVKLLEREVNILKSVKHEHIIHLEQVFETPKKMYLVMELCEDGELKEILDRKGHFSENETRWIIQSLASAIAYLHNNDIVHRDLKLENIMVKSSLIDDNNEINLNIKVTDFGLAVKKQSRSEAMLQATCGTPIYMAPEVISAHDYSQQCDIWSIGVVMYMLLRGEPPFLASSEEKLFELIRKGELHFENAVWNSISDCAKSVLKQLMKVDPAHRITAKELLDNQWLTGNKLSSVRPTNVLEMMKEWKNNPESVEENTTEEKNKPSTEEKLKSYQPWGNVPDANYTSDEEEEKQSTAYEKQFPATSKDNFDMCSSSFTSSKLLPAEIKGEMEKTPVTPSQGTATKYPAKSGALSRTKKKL
The target of a further assay is UniProt Q9NWV4. The description is as above. Conditions: cell material: Jurkat cells.
Chain of UniProt Q9NWV4 (Q9NWV4 whole entry): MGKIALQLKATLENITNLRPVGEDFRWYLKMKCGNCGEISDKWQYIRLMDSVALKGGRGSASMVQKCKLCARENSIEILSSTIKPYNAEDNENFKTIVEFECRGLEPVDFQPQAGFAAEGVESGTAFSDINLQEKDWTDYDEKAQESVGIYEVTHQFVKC

Chain of UniProt P23443 (P23443 whole entry, looked up): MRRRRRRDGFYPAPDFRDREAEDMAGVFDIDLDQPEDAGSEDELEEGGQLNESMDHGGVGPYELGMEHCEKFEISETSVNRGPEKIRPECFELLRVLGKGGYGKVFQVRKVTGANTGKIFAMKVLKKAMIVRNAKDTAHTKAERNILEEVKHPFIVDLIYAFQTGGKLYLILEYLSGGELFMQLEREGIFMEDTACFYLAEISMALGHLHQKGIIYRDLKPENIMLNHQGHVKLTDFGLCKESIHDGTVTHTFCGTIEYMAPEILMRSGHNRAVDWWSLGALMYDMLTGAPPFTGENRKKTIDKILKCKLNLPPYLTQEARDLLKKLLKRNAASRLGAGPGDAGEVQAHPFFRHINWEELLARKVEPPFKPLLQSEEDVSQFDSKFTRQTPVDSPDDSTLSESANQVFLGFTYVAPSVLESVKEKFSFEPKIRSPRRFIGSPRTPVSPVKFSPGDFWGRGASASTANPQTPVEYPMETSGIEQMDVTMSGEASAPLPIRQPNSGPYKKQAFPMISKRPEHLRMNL
Chain of AKT1 (P31749 whole entry): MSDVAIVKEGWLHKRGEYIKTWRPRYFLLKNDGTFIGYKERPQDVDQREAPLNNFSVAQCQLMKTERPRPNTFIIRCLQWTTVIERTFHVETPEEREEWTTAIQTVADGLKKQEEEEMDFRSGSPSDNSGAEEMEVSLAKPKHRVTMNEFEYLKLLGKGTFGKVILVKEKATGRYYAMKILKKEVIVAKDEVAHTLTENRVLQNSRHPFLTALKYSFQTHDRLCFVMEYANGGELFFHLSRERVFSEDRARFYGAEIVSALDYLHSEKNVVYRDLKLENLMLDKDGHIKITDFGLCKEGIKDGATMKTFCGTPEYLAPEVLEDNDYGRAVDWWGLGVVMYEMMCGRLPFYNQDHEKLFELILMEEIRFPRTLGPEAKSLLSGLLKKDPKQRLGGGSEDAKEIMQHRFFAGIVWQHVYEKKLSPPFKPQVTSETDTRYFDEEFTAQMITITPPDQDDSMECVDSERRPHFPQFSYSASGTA
Chain of MAPK12 (P53778 whole entry): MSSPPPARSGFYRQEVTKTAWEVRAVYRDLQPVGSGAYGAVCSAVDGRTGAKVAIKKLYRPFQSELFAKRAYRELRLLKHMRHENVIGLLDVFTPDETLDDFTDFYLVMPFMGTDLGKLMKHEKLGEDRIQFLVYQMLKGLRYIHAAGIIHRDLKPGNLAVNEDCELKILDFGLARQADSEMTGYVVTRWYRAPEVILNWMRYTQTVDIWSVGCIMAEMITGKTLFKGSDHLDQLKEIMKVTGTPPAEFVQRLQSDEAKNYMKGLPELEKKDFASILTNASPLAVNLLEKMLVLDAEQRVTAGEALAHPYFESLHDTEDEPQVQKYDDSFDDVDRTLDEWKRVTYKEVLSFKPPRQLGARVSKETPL
Chain of UniProt O00506 (O00506 whole entry, looked up): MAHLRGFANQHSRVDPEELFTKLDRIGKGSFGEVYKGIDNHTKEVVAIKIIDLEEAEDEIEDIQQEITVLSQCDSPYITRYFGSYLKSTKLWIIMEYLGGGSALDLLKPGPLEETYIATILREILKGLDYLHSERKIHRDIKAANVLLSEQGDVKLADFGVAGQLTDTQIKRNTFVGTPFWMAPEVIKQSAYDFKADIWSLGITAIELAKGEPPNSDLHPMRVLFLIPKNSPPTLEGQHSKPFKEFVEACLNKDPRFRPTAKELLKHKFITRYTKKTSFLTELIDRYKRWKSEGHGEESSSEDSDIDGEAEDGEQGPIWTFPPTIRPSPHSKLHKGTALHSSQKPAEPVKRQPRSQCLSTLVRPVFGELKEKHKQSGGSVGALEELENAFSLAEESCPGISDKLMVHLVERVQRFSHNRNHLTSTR
Chain of PAK1 (Q13153 whole entry): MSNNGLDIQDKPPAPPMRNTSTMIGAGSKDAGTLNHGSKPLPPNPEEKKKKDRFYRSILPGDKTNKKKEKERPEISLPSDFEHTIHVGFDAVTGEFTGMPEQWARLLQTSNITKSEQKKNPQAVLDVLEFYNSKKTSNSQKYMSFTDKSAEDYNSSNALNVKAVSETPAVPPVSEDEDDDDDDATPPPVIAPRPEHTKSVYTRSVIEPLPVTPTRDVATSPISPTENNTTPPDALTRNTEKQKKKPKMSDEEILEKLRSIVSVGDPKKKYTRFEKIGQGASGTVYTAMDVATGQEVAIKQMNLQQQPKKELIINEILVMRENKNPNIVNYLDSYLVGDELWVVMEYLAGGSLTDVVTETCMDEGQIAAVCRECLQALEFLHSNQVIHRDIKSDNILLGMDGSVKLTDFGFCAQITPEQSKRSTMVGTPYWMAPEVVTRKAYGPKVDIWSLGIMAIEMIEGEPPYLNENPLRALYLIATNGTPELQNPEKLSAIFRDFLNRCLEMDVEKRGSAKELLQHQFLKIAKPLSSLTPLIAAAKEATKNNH
Chain of PAK2 (Q13177 whole entry): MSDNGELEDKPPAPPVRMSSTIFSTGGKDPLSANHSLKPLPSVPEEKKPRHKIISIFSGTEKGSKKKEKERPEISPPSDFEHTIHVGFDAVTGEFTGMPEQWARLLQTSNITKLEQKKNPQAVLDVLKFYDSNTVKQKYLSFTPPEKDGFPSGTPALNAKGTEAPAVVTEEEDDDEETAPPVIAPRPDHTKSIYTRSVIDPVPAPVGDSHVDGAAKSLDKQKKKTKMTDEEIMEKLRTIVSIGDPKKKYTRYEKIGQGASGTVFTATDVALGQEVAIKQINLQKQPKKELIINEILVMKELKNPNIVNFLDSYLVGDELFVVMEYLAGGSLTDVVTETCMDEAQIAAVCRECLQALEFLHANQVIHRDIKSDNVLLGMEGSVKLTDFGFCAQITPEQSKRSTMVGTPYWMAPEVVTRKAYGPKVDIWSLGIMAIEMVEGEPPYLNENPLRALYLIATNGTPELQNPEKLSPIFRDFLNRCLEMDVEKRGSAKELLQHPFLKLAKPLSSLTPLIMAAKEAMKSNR

As for `C#CCNC(=O)c1cc(Nc2cc(C3CC3)[nH]n2)nc(N2CCN(Cc3ccc(S(=O)(=O)F)cc3)CC2)n1`, the pIC50 was 4.92 at AKT1 (cell material: Jurkat cells); 5.92 on MAST1; below 4.52 on PAK1; below 4.52 on RAF1 (cell material: Jurkat cells); below 4.52 on TRRAP; below 4.52 on UHMK1. Further, the negative-log IC50 (pIC50) at UniProt O00506 (cell material: Jurkat lysate) was 6.59; at UniProt P23443 (cell material: Jurkat cells), 5.19; at UniProt P23443 (cell material: Jurkat lysate), below 4.52.
On to `CCc1cnn2c(NCc3ccc[n+]([O-])c3)cc(N3CCCC[C@H]3CCO)nc12` [dinaciclib], for which the pIC50 on MAPK12, on NEK9, at PAK2, on STK33 and at UniProt Q9NWV4 was below 4.52 throughout.
Take `CC#CC(=O)Nc1ccc2ncnc(Nc3cccc(Br)c3)c2c1` [EKI-785]: the pIC50 on MAPK12 is 4.64; at NEK9, below 4.52; on PAK2 it was below 4.52; at STK33, below 4.52; on UniProt Q9NWV4, below 4.52.
As to `O=C(NCCNC(=O)c1cc(Nc2cc(C3CC3)[nH]n2)nc(N2CCN(Cc3ccc(S(=O)(=O)F)cc3)CC2)n1)OC1CC/C=C/CCC1` (centres undefined), the negative-log IC50 (pIC50) on AKT1 (cell material: Jurkat cells) is below 4.52; on AKT1 (cell material: Jurkat lysate), below 4.52; on MAST1 it was 4.57; at PAK1 it was below 4.52; on RAF1 (cell material: Jurkat cells) it was below 4.52; on RAF1 (cell material: Jurkat lysate), below 4.52. Besides, the pIC50 on TRRAP, at UHMK1, on UniProt O00506 (cell material: Lysate mix) and on UniProt P23443 (cell material: Jurkat lysate) was below 4.52 each time.

As a reminder, the pIC50 is the IC50 on a negative log10 scale, so that one unit is a factor of ten. Lower therefore signals a large IC50.
